Source: paper PMC7501296, “Rapid and direct control of target protein levels with VHL-recruiting dTAG molecules” (Nature Communications, 2020)
Values joined by “and” are separate entries in the source; they are usually repeats but may differ in a detail not shown here. Identical values can stand only once.

Columns and labels:
Type in all cases: cell-based
FKBP12^WT-Nluc = target: T1, FKBP12^WT-Nluc (Homo sapiens, UniProt P62942); test: FKBP12WT-Nluc dual luciferase assay (293FT); conditions: 293FT, 24 h
T1 construct: expressed in transfected cells; host or cells: 293FT
Outline: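 293FT cells expressing FKBP12^WT-Nluc or FKBP12^F36V-Nluc with Fluc were treated with compound for 24 h at 37 °C. Fluc, then Nluc, luminescence was read with Dual-Glo reagents. Values are DMSO-normalised Nluc/Fluc ratios.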

[1] = test system: PATU-8902 FKBP12^F36V-KRAS^G12V; KRAS^-/- clone; test: Antiproliferation, PATU-8902 FKBP12F36V-KRASG12V; KRAS-/- clone, 3D-spheroid (CellTiter-Glo); conditions: FKBP12F36V-KRASG12V, KRAS-/-, 3D-spheroid, 120 h
Outline: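 Viability of cells grown as ultra-low adherent 3D-spheroids was determined with CellTiter-Glo (Promega). Luminescence readings were taken on an Envision 2104 plate reader (PerkinElmer) and a Fluostar Omega Reader (BMG Labtech), and the resulting data were processed in GraphPad PRISM v8 to assess effects on cell proliferation.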

[2] = test system: PATU-8902 LACZ-FKBP12^F36V clone; test: Antiproliferation, PATU-8902 LACZ-FKBP12F36V clone, 3D-spheroid (CellTiter-Glo); conditions: 120 h
Outline: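 Viability of cells grown as ultra-low adherent 3D-spheroids was determined with the CellTiter-Glo reagent (Promega). Luminescence was read on either an Envision 2104 plate reader (PerkinElmer) or a Fluostar Omega Reader (BMG Labtech). The resulting data were analyzed with GraphPad PRISM v8.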

[3] = test system: PATU-8902 FKBP12^F36V-KRAS^G12V; KRAS^-/- clone; test: Antiproliferation, PATU-8902 FKBP12F36V-KRASG12V; KRAS-/- clone, 2D-monolayer (CellTiter-Glo)
[4] = log10[compound] (M) -5.69897, single replicates
[5] = log10[compound] (M) -6.19897, single replicates
[6] = log10[compound] (M) -6.69897, single replicates
[7] = log10[compound] (M) -7.19897, single replicates
[8] = log10[compound] (M) -7.69897, single replicates
[9] = log10[compound] (M) -8.19897, single replicates
[10] = log10[compound] (M) -8.69897, single replicates
[11] = log10[compound] (M) -9.19897, single replicates
[12] = log10[compound] (M) -9.69897, single replicates
[13] = log10[compound] (M) -10.199, single replicates

T1 sequence (P62942 2-108 limits assumed): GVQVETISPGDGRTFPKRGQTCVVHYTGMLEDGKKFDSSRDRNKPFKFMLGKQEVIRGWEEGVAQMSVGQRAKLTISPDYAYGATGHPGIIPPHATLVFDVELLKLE

## CCC(C(=O)N1CCCCC1C(=O)OC(CCc1ccc(OC)c(OC)c1)c1ccccc1OCC(=O)NCCCCCCC(=O)NC(C(=O)N1CC(O)CC1C(=O)NC(C)c1ccc(-c2scnc2C)cc1)C(C)(C)C)c1cc(OC)c(OC)c(OC)c1 (stereo not shown) [dTAG^V-1-NEG]
FKBP12^WT-Nluc
  Effect on FKBP12WT-Nluc (in words): no activity
[1]; [4]
  DMSO-normalized antiproliferation: 37.3931 and 26.551 and 27.3028 and 28.0546
[1]; [5]
  DMSO-normalized antiproliferation: 78.1886 and 92.1435 and 64.5511 and 70.1475
[1]; [6]
  DMSO-normalized antiproliferation: 103.503 and 85.567 and 103.938 and 98.1965
[1]; [7]
  DMSO-normalized antiproliferation: 124.063 and 123.712 and 110.481 and 131.998
[1]; [8]
  DMSO-normalized antiproliferation: 94.7496 and 116.061 and 121.718 and 128.178
[1]; [9]
  DMSO-normalized antiproliferation: 119.268 and 103.119 and 108.576 and 125.767
[1]; [10]
  DMSO-normalized antiproliferation: 120.883 and 119.814 and 120.521 and 105.703
[1]; [11]
  DMSO-normalized antiproliferation: 102.117 and 92.5221 and 111.366 and 98.8369
[1]; [12]
  DMSO-normalized antiproliferation: 88.1174 and 98.3023 and 99.984 and 124.954
[1]; [13]
  DMSO-normalized antiproliferation: 99.0429 and 90.8682 and 97.0717 and 101.855
[2]; [4]
  DMSO-normalized antiproliferation: 68.4913 and 65.8862 and 68.8321 and 78.0465
[2]; [5]
  DMSO-normalized antiproliferation: 88.8571 and 103.865 and 101.246 and 98.2508
[2]; [6]
  DMSO-normalized antiproliferation: 91.2022 and 101.677 and 109.864 and 107.932
[2]; [7]
  DMSO-normalized antiproliferation: 113.68 and 101.811 and 126.495 and 101.479
[2]; [8]
  DMSO-normalized antiproliferation: 124.531 and 121.356 and 110.765 and 105.317
[2]; [9]
  DMSO-normalized antiproliferation: 119.921 and 92.6191 and 101.851 and 115.03
[2]; [10]
  DMSO-normalized antiproliferation: 108.505 and 98.1611 and 108.837 and 115.846
[2]; [11]
  DMSO-normalized antiproliferation: 113.362 and 108.537 and 123.253 and 101.067
[2]; [12]
  DMSO-normalized antiproliferation: 112.187 and 102.493 and 128.974 and 86.9201
[2]; [13]
  DMSO-normalized antiproliferation: 94.0987 and 98.1746 and 115.316 and 84.3777
[3]; log10[compound] (M) -5.69897, replicate values
  DMSO-normalized antiproliferation: 4.32 and 6.388 and 6.155 and 5.991
[3]; log10[compound] (M) -6.19897, replicate values
  DMSO-normalized antiproliferation: 32.3489 and 36.7324 and 47.9927 and 46.6785
[3]; log10[compound] (M) -6.69897, replicate values
  DMSO-normalized antiproliferation: 83.4764 and 91.9957 and 98.0856 and 85.7695
[3]; log10[compound] (M) -7.19897, replicate values
  DMSO-normalized antiproliferation: 140.095 and 133.654 and 96.5457 and 87.6299
[3]; log10[compound] (M) -7.69897, replicate values
  DMSO-normalized antiproliferation: 124.703 and 107.666 and 124.781 and 104.227
[3]; log10[compound] (M) -8.19897, replicate values
  DMSO-normalized antiproliferation: 100.524 and 126.087 and 110.25 and 83.3074
[3]; log10[compound] (M) -8.69897, replicate values
  DMSO-normalized antiproliferation: 126.672 and 110.141 and 94.4012 and 101.209
[3]; log10[compound] (M) -9.19897, replicate values
  DMSO-normalized antiproliferation: 119.782 and 117.251 and 170.771 and 120.652
[3]; log10[compound] (M) -9.69897, replicate values
  DMSO-normalized antiproliferation: 93.2126 and 100.867 and 84.0534 and 89.6654
[3]; log10[compound] (M) -10.199, replicate values
  DMSO-normalized antiproliferation: 113.321 and 95.7713 and 117.376 and 100.982
